Laboratory results taken from publication PMC10388362, “Fluorescent Ligands Enable Target Engagement Studies for the Intracellular Allosteric Binding Site of the Chemokine Receptor CXCR2” (Journal of Medicinal Chemistry, 2023).

Legend:
CCR9 = target: T1, CCR9 (Homo sapiens, UniProt P51686); assay: Membrane-based NanoBRET saturation assay, selectivity (CCR9_Nluc membranes)
T1 construct: host or cells: HEK293T; membrane preparation
T1 sequence (P51686 1-369): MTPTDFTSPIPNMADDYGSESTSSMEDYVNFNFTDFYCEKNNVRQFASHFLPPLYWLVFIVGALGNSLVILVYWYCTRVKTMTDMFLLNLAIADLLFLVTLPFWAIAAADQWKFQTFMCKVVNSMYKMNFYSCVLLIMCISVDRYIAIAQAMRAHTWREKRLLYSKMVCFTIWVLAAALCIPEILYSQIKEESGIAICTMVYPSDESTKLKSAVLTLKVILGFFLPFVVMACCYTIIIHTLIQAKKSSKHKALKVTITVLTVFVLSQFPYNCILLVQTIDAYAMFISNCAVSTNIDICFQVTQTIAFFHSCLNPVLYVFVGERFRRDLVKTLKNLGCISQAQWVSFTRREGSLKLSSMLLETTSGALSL
Procedure: (§1) For the establishment of our NanoBRET binding assay, we referred to a recently published protocol.[45] The fluorescent ligands (9a–c) were dissolved in DMSO (1 mM) and further diluted to varying concentrations in an assay buffer (50 mM Na2HPO4, 50 mM KH2PO4, pH 7.4, 1 mg/mL saponin, 5% FBS) and 5 μL of these dilutions were pipetted to a 384-well plate. To determine the total binding, 5 μL of the assay buffer was added to the corresponding wells, while 5 μL of a solution of 3 in the assay buffer (final assay concentration: 1 μM) was used to determine nonspecific binding. Then, 20 μL of the membrane preparations diluted in the assay buffer (2 μg total protein/well) were added and the plates were incubated for 90 min at 37 °C. Subsequently, 5 μL of a furimazine solution (Promega, Mannheim, Germany, final assay dilution: 1:5000) was added to each well (final assay volume: 35 μL) before measuring luminescence with a CLARIOstar microplate reader using 620/10 and 475/30 nm emission filters after 5 min of incubation in the dark. Bioluminescence resonance energy transfer (BRET) was determined as the ratio of acceptor fluorescence and donor luminescence. […] Specific binding signals were calculated as a difference of total and nonspecific binding. If required, netBRET values were calculated as the difference between total BRET values and the values obtained in the absence of a fluorescent ligand. […]

CCR2 = target: T2, CCR2 (Homo sapiens, UniProt P41597); assay: Membrane-based NanoBRET saturation assay, selectivity (CCR2_GSSG_Nluc membranes)
T2 construct: host or cells: HEK293T; membrane preparation
T2 sequence (P41597 1-360 isoform P41597-2): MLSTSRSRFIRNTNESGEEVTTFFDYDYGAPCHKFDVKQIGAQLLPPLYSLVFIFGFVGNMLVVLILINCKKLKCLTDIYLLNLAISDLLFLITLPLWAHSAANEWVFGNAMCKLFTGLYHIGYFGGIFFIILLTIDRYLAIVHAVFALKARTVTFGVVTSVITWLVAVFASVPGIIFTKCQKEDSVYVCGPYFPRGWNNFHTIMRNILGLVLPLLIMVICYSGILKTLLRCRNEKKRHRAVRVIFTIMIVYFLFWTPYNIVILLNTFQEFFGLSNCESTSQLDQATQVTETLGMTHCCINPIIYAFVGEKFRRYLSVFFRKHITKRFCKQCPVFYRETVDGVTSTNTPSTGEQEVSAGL
Procedure: as §1

With `Cc1ccc([C@H](Nc2c(Nc3cccc(C(=O)NCc4cn(CCOCCOCCOCCNC(=O)c5ccc(C(=O)[O-])c(-c6c7ccc(=[N+](C)C)cc-7oc7cc(N(C)C)ccc67)c5)nn4)c3O)c(=O)c2=O)C(C)(C)C)o1` [9a, (R)-4-((2-(2-(2-(2-(4-((3-((2-((2,2-Dimethyl-1-(5-methylfuran-2-yl)propyl)amino)-3,4-dioxocyclobut-1-en-1-yl)amino)-2-hydroxybenzamido)methyl)-1H-1,2,3-triazol-1-yl)ethoxy)ethoxy)ethoxy)ethyl)carbamoyl)-2-(6-(dimethylamino)-3-(dimethyliminio)-3H-xanthen-9-yl)benzoate] as the compound, how does the “binding to CCR9” value (CCR9) read?
The value was “no significant binding”.

What about the “binding to CCR2” value (CCR2) of the same compound?
The value was “no significant binding”.
